In patent US20240082342A1, “PEPTIDE THERAPEUTICS FOR INCREASING LUNG CELL VIABILITY” (BOARD OF REGENTS, THE UNIVERSITY OF TEXAS SYSTEM, priority 2018, published 2024):
“Also recorded” adds a separate entry of the source.

Legend:
human COPD lung tissues = assay: Human COPD lung tissues treated ex vivo for 72 h; type: cell-based; settings: for active caspase-3 in AT2 cells isolated from treated tissue: COPD tissue ex vivo
Procedure: Lung tissues from control subjects and patients with COPD were treated with or without CSP7 for 72 h ex vivo or in vitro. Lung homogenates were analyzed for immunoblot and Real time PCR.
Treatment of human lung tissues with CSP7 ex vivo. For ex vivo studies, de-identified human COPD lung tissues and histologically “normal” lung (nL) tissues were obtained from transplant recipients and from the Gift of Life Donor Program (www.donors1.org) from Temple University, Philadelphia, PA, USA.
(§1) Ex vivo studies using human lung tissues without patient identity was approved by the Institutional (UTHSCT) Review Board (IRB) through exempt protocol #12-003. nL and COPD tissues (n=4-5) were treated with or without CSP7 for 72 h ex vivo as described previously (Marudamuthu et al, 2019). Total protein and RNA extracted from the lung tissues were analyzed by Western blotting and qPCR for MUC5AC protein and mRNA, respectively. In separate experiments, AT2 cells isolated from nL and COPD lungs were treated with CSP7 or CP and immunoblotted for changes in senescence or apoptosis, p53, PAI-1 and SP-C expression. Similarly, nL and COPD tissues were treated with or without CSP7 or CP for 72 h ex vivo and AT2 cells isolated from these tissues were analyzed for senescence or apoptosis, p53, PAI-1 and SP-C.

WT mice exposed to PTS = assay: Passive tobacco smoke (PTS) exposed WT mice treated IP with CSP or CSP7 once a week; type: in vivo, mouse; settings: for p53, PAI-1 expression and apoptosis in A2Cs/A2ECs: PTS (or IL-17A) exposure; for pulmonary influx of CD4- and CD8-positive T cells, macrophages and neutrophils: PTS exposed mice
Procedure: Four weeks after initiation of PTS exposure, the WT mice were administered an intraperitoneal injection of vehicle or CSP (18.75 mg/kg body wt) or control peptide (CP) once a week for the next 4 weeks. Exposure to PTS was continued for another 12 weeks. BAL fluid and lysates (CL) from A2ECs isolated from PTS exposed WT mice treated with vehicle, CSP or CP were immunoblotted for p53 and PAI-1 and activation of caspase-3. -β-actin was tested for similar loading. […] The process involves inhibition of p53-induced PAI-1 expression.
FIGS. 57A-57C show inhibition of PTS-induced IL-17A by CSP in WT mice. Four weeks after initiation of PTS exposure as in FIG. 56, the WT mice were administered an intraperitoneal (IP) injection of vehicle or CSP (18.75 mg/kg body wt) or control peptide (CP) once a week for the next 4 weeks. Exposure to PTS was continued for another 12 weeks. Lung sections (A), lung homogenates (B) and total RNA (C) were analyzed for IL-17A and IL-17R mRNA expression by qRT-PCR.
FIGS. 60A-60B show inhibition of PTS-induced p53^AC, p53^S15 and p53, PAI-1, apoptosis and senescence by CSP7 in WT mice. Four weeks after initiation of PTS exposure as in FIG. 56, the WT mice were IP injected with vehicle or CSP7 or CP once a week for the next 4 weeks. Exposure to PTS was continued for another 12 weeks. (A) Lung sections were subjected IHC analysis for p53 and PAI-1. (B) A2ECs isolated from the lungs of these mice were immunoblotted for above mentioned proteins.
Wild-type (WT) and p53- and PAI-1-deficient mice of C57BL/6 background were bred in the inventor's facilities or were purchased from Jackson Laboratories. These mice were exposed to passive TSE from 40 research cigarettes over a 2 hour period 5 days/week for 20 weeks (^˜90 mg/m3 total solid particulates) by using a mechanical smoking chamber (Teague Enterprises, Davis, CA). Control mice were exposed to ambient air. Four weeks after initiation of passive TSE exposure, the mice were administered an intraperitoneal injection of CSP7 or scrambled control peptide (CP) (18.75 mg/kg body wt) once a week for 4 weeks (Marudamuthu et al. Am J Pathol 185: 55-68, 2015); Tiwari et al., supra). Mice were killed, and their lungs were used for further analyses (Bhandary et al., supra).

[1] = test system: AT2 cells from COPD lung tissues; assay: AT2 cells isolated from COPD lung tissues treated in vitro; type: cell-based, human
Procedure: as §1

[2] = AT2 cells from COPD tissue, in vitro

DGIWKASFTTFTVTKYWFYR (listed as Homo sapiens) [CSP, 20 residue caveolin-1 scaffolding domain peptide]
MUC5AC, HDAC6, SPDEF, Ac-Tubulin, FOXA2 and other MCM markers (Western blot) (human COPD lung tissues; COPD tissue, 10 μM, 72 h): reverse | p53, PAI-1 expression and apoptosis in A2Cs/A2ECs (WT mice exposed to PTS): mitigates A2EC apoptosis | pulmonary influx of CD4- and CD8-positive T cells, macrophages and neutrophils (WT mice exposed to PTS): inhibits pulmonary influx of CD4- and CD8-positive T cells, macrophages and neutrophils | lung inflammation, pulmonary PMN accumulation (MPO) (WT mice exposed to PTS; WT mice, 20 weeks PTS): significantly suppresses lung inflammation | lung volume (micro-CT) (WT mice exposed to PTS; WT mice, 20 weeks PTS): significantly reduced; also recorded: reduced lung volumes | Cav1 binding with PP2Ac in A2ECs (WT mice exposed to PTS; WT mice, PTS): inhibited the PTS-induced binding of Cav1 with PP2Ac | Cav1 expression in A2ECs (WT mice exposed to PTS; WT mice, PTS): without affecting Cav1 expression; also recorded: without inhibiting PTS-induced Cav1 | PTS-induced IL-17A (and IL-17R) in the lungs (WT mice exposed to PTS; WT mice, PTS): inhibits PTS-induced accumulation of IL-17A in the lungs; also recorded: significantly inhibited PTS-induced IL-17A and IL-17R levels | acetylated p53, serine-15 phosphorylated p53, total p53 and Sirt1 in A2ECs (WT mice exposed to PTS; WT mice, PTS): blocked ^p15Sp53; also recorded: inhibits acetylation; also recorded: restoration of Sirt1; also recorded: reduced p53^AC, p53^S15 and total p53 levels, and restored baseline Sirt1 expression | miR-34a expression in A2ECs (WT mice exposed to PTS; WT mice, PTS): suppression of miR-34a expression; also recorded: significantly inhibited

FTTFTVT (listed as Homo sapiens) [CSP7, heptapeptide fragment of the caveolin-1 scaffolding domain peptide CSP]
PP2A and CIP2A mRNA (human COPD lung tissues; COPD tissue): significantly reversed | active caspase-3 in AT2 cells isolated from treated tissue (human COPD lung tissues): reduced active caspase-3 | MUC5AC, HDAC6, FOXA3, CAV1 and FOXA2 mRNA (human COPD lung tissues; COPD tissue, 10 μM, 72 h): parallel inhibition of MUC5AC, HDAC6, FOXA3 and CAV1 mRNA with an increase in FOXA2 mRNA | MUC5AC, HDAC6, SPDEF, Ac-Tubulin, FOXA2 and other MCM markers (Western blot) (human COPD lung tissues; COPD tissue, 10 μM, 72 h): reverse; also recorded: reduced MUC5AC and other MCM markers | baseline CAV1, p53 and PAI-1 (human COPD lung tissues; COPD tissue, 10 μM, 72 h): suppression of baseline CAV1, p53, and PAI-1 | p53 and SP-C in AT2 cells isolated from treated tissue (human COPD lung tissues; COPD tissue, 72 h ex vivo): reduction in p53 while restoring baseline SP-C expression | effect in nL tissues (human COPD lung tissues; normal lung tissue ex vivo): minimal effect | p53, PAI-1 expression and apoptosis in A2Cs/A2ECs (WT mice exposed to PTS): inhibited PTS or IL-17A exposure induced p53 | pulmonary influx of CD4- and CD8-positive T cells, macrophages and neutrophils (WT mice exposed to PTS): inhibits pulmonary influx of CD4- and CD8-positive T cells, macrophages and neutrophils; also recorded: reversed | PAI-1, p53^AC, p53^S15, cleaved Caspase-3 and beta-galactosidase in lung sections and A2ECs (WT mice exposed to PTS; WT mice, 20 weeks PTS): markedly reduced | lung volume (micro-CT) (WT mice exposed to PTS; WT mice, 20 weeks PTS): significantly reduced; also recorded: reduced lung volumes | Cav1 expression in A2ECs (WT mice exposed to PTS; WT mice, PTS): without inhibiting PTS-induced Cav1 | PTS-induced IL-17A (and IL-17R) in the lungs (WT mice exposed to PTS; WT mice, PTS): inhibits PTS-induced accumulation of IL-17A in the lungs | acetylated p53, serine-15 phosphorylated p53, total p53 and Sirt1 in A2ECs (WT mice exposed to PTS; WT mice, PTS): reduced p53^AC, p53^S15 and total p53 levels, and restored baseline Sirt1 expression | miR-34a expression in A2ECs (WT mice exposed to PTS; WT mice, PTS): reduced miR-34a | p53 and PAI-1 in BAL fluids and lung homogenates (WT mice exposed to PTS; injected 4 weeks after initiation of TSE, 20 weeks): significantly suppressed the expression of p53 and PAI-1 | SP-C level [1, 2]: restored baseline SP-C level | p53 and apoptosis [1, 2]: marked suppression of p53 and apoptosis | response of AT2 cells from nL tissues ([1]; subjects without COPD): failed to respond to CSP7 treatment

WGIDKAFFTTSTVTYKWFRY [CP, scrambled control peptide with the same amino acid composition as CSP, reference compound]
active caspase-3 in AT2 cells isolated from treated tissue (human COPD lung tissues): otherwise increased | MUC5AC, HDAC6, FOXA3, CAV1 and FOXA2 mRNA (human COPD lung tissues; COPD tissue, 10 μM, 72 h): failed to respond | acetylated p53, serine-15 phosphorylated p53, total p53 and Sirt1 in A2ECs (WT mice exposed to PTS; WT mice, PTS): still showed elevated p53^AC, p53^S15, total p53 and PAI-1 | p53 and apoptosis [1, 2]: remained elevated
